Experimental data: patent US20230174584A1, “Antibiotic Compounds” (priority 2019, published 2023)
≈ marks a conversion by molar mass, not a printed value.

What was measured:
[1] = system: S. aureus 880 (BR-VRSA), NR-49120; test: MIC assay; format: cell-based, Staphylococcus aureus
Experimental: (§1) The antibacterial activity of the compounds was tested against a panel of bacteria, including Gram-positive bacteria (S. aureus ATCC29213, S. aureus USA300, S. aureus LIM-2, NR-45881, S. aureus HIP13419, NR-46413, E. faecium E155, E. faecium E7314, E. faecium E980, E. faecalis E1246, E. faecalis E7406 and S. pneumonia 153). The antibacterial activity of the compounds was further tested against S. aureus NY-155, NR-46236, S. aureus HIP12864, NR-46074, S. aureus 880 (BR-VRSA), NR-49120, E. faecalis E1246, E. faecalis E7604, as well as some Gram-negative bacteria (Escherichia coli and Klebsiella pneumoniae). Minimum inhibitory concentrations (MICs) in μg/mL were performed according to the CLSI guidelines. From glycerol stocks, bacterial strains were cultured on blood agar plates and incubated at 37° C. for 18 h. A single colony was transferred to tryptic soy broth (TSB) with 0.002% polysorbate 80 (p80). For the Enterococcus, VISA and VRSA strains, the cultures were grown at 37° C. until the optical density of the suspension reached a level equivalent to the 0.5 McFarland standard. The bacterial suspensions were diluted in TSB with 0.002% p80 to reach a bacterial cell density of 10^6 CFU/mL. In case of the other (vancomycin-sensitive) S. aureus strains, the direct colony suspension method was used. For these strains, after transfer of the colonies to TSB with 0.002% p80, they were immediately diluted to 10^6 CFU/mL, instead of incubated prior to this dilution. In the case of S. pneumonia, direct colony suspension was used by immediately suspending multiple colonies from fresh blood agar plates in TSB+0.002% p80 to an OD600 of 0.5 and subsequent dilution to 10^6 CFU mL^−1 in TSB+0.002% p80+5% lysed horse blood. Antibiotic dilutions for this strains were also made in TSB+0.002% p80+5% lysed horse blood. Both agar and microplates containing S. pneumonia were incubated at 37° C. with 5% CO2 for 24 h with constant shaking (600 rpm). […] The cultures were grown to exponential phase (OD600=0.5) at 37° C. […] In polypropylene 96-well microtiter plates, test compounds were added in biological triplicates and serial diluted 2-fold by transfer and mixing from one well to the next to achieve a final volume of 50 μL per well. An equal volume of bacterial suspension (10^6 CFU mL^−1) was added to the wells. The plates were sealed with breathable membranes and incubated at 37° C. for 24 h with constant shaking (600 rpm). In polypropylene microtiter plates, 100 μL of the test compounds was added to the first row in biological triplicates, and 50 μL of media was added to the other wells. The compounds were subjected to serial dilution by transfer and mixing of 50 μL from one well to the next. Subsequently, 50 μL of bacterial suspension (10^6 CFU/mL) was added to the wells. The plates were sealed with breathable membranes and incubated at 37° C. for 24 h with constant shaking (600 rpm). Positive growth control consisted of wells with bacterial suspension and without antibiotic. Negative growth control consisted of solely media without bacterial suspension or antibiotic. The MICs were determined from the median of a minimum of triplicates.

S. aureus ATCC29213 = test: MIC assay; format: cell-based, Staphylococcus aureus
Experimental: as §1

[2] = system: S. aureus HIP12864, NR-46074; test: MIC assay; format: cell-based, Staphylococcus aureus
Experimental: as §1

[3] = system: S. aureus LIM-2, NR-25881; test: MIC assay; format: cell-based, Staphylococcus aureus
Experimental: as §1

[4] = system: S. aureus NY-155, NR-46236; test: MIC assay; format: cell-based, Staphylococcus aureus
Experimental: as §1

E. faecium E0072 = test: MIC assay; format: cell-based, Enterococcus faecium; conditions: E. faecium E0072, VanA
Experimental: as §1

E. faecium E0300 = test: MIC assay; format: cell-based, Enterococcus faecium; conditions: E. faecium E0300, VanA
Experimental: as §1

E. faecium E0333 = test: MIC assay; format: cell-based, Enterococcus faecium; conditions: E. faecium E0333, VanA
Experimental: as §1

E. faecium E0506 = test: MIC assay; format: cell-based, Enterococcus faecium; conditions: E. faecium E0506, VanA
Experimental: as §1

E. faecium E0745 = test: MIC assay; format: cell-based, Enterococcus faecium; conditions: E. faecium E0745, VanA
Experimental: as §1

E. faecium E1130 = test: MIC assay; format: cell-based, Enterococcus faecium; conditions: E. faecium E1130, VanA
Experimental: as §1

E. faecium E2373 = test: MIC assay; format: cell-based, Enterococcus faecium; conditions: E. faecium E2373, VanA
Experimental: as §1

E. faecium E7319 = test: MIC assay; format: cell-based, Enterococcus faecium; conditions: E. faecium E7319, VanA
Experimental: as §1

E. faecium E7413 = test: MIC assay; format: cell-based, Enterococcus faecium; conditions: E. faecium E7413, VanA
Experimental: as §1

E. faecium E7424 = test: MIC assay; format: cell-based, Enterococcus faecium; conditions: E. faecium E7424, VanB
Experimental: as §1

E. faecium E980 = test: MIC assay; format: cell-based, Enterococcus faecium
Experimental: as §1

E. faecium EO321 = test: MIC assay; format: cell-based, Enterococcus faecium; conditions: E. faecium EO321, VanA
Experimental: as §1

E. faecium E1441 = test: MIC assay; format: cell-based, Enterococcus faecium; conditions: E. faecium E1441, VanA
E. faecium E2359 = test: MIC assay; format: cell-based, Enterococcus faecium; conditions: E. faecium E2359, VanB
[5] = system: panel of 31 vancomycin-resistant E. faecium strains; test: MIC assay, MIC50/MIC90 over panel; format: cell-based, Enterococcus faecium; conditions: panel of 31 vancomycin-resistant E. faecium strains
Experimental: as §1

[6] = S. aureus HIP12864, NR-46074 VISA
[7] = S. aureus NY-155, NR-46236 MRSA

Compound | MIC ([1]; S. aureus 880, NR-49120 VRSA) [µg/mL] | MIC (S. aureus ATCC29213; S. aureus ATCC29213 MSSA) [µg/mL] | MIC [2, 6] [µg/mL] | MIC ([3]; S. aureus LIM-2, NR-25881 VISA) [µg/mL] | MIC [4, 7] [µg/mL] | MIC (E. faecium E0072) [µg/mL] | MIC (E. faecium E0300) [µg/mL] | MIC (E. faecium E0333) [µg/mL] | MIC (E. faecium E0506) [µg/mL] | MIC (E. faecium E0745) [µg/mL] | MIC (E. faecium E1130) [µg/mL] | MIC (E. faecium E2373) [µg/mL] | MIC (E. faecium E7319) [µg/mL] | MIC (E. faecium E7413) [µg/mL] | MIC (E. faecium E7424) [µg/mL] | MIC (E. faecium E980; E. faecium E980 VSE) [µg/mL] | MIC (E. faecium EO321) [µg/mL] | MIC (E. faecium E1441) [µg/mL] | MIC (E. faecium E2359) [µg/mL] | MIC50 [5] [µg/mL] | also measured
CCCCCCCNC(N)=Nc1ccc(CN[C@@]2(C)C[C@H](O[C@H]3[C@H](Oc4c5cc6cc4Oc4ccc(cc4Cl)[C@@H](O)[C@@H](NC(=O)[C@@H](CC(C)C)NC)C(=O)N[C@@H](CC(N)=O)C(=O)N[C@H]6C(=O)N[C@H]4C(=O)N[C@H](C(=O)N[C@H](C(=O)O)c6cc(O)cc(O)c6-c6cc4ccc6O)[C@H](O)c4ccc(c(Cl)c4)O5)O[C@H](CO)[C@@H](O)[C@@H]3O)O[C@@H](C)[C@H]2O)cc1 [Compound 5] | 4 (≈ 2.36 µM) | ≤0.007812 | 0.063 (≈ 0.0372 µM) | 0.031 (≈ 0.0183 µM) | ≤0.008 | 0.25 (≈ 0.148 µM) | 4 (≈ 2.36 µM) | 8 (≈ 4.72 µM) | 2 (≈ 1.18 µM) | 1 (≈ 0.59 µM) | ≤0.008 | 4 (≈ 2.36 µM) | 0.5 (≈ 0.295 µM) | 8 (≈ 4.72 µM) | ≤0.008 | ≤0.007812 | 8 (≈ 4.72 µM) | 4 (≈ 2.36 µM) | ≤0.008 | 1 (≈ 0.59 µM) | MIC ([1]; strain BR-VRSA): 4 µg/mL (≈ 2.36 µM); MIC90 [5]: 8 µg/mL (≈ 4.72 µM)
CCCCCCCCNC(N)=Nc1ccc(CN[C@@]2(C)C[C@H](O[C@H]3[C@H](Oc4c5cc6cc4Oc4ccc(cc4Cl)[C@@H](O)[C@@H](NC(=O)[C@@H](CC(C)C)NC)C(=O)N[C@@H](CC(N)=O)C(=O)N[C@H]6C(=O)N[C@H]4C(=O)N[C@H](C(=O)N[C@H](C(=O)O)c6cc(O)cc(O)c6-c6cc4ccc6O)[C@H](O)c4ccc(c(Cl)c4)O5)O[C@H](CO)[C@@H](O)[C@@H]3O)O[C@@H](C)[C@H]2O)cc1 [Compound 6] | 2 (≈ 1.17 µM) | ≤0.007812 | ≤0.008 | ≤0.008 | ≤0.008 | 0.5 (≈ 0.293 µM) | 2 (≈ 1.17 µM) | 4 (≈ 2.34 µM) | 2 (≈ 1.17 µM) | 0.25 (≈ 0.146 µM) | ≤0.008 | 2 (≈ 1.17 µM) | 0.125 (≈ 0.0732 µM) | 4 (≈ 2.34 µM) | ≤0.008 | 0.01562 (≈ 0.00914 µM) | 4 (≈ 2.34 µM) | 2 (≈ 1.17 µM) | ≤0.008 | 0.5 (≈ 0.293 µM) | MIC90 [5]: 4 µg/mL (≈ 2.34 µM)
CCCCCCCCCNC(N)=Nc1ccc(CN[C@@]2(C)C[C@H](O[C@H]3[C@H](Oc4c5cc6cc4Oc4ccc(cc4Cl)[C@@H](O)[C@@H](NC(=O)[C@@H](CC(C)C)NC)C(=O)N[C@@H](CC(N)=O)C(=O)N[C@H]6C(=O)N[C@H]4C(=O)N[C@H](C(=O)N[C@H](C(=O)O)c6cc(O)cc(O)c6-c6cc4ccc6O)[C@H](O)c4ccc(c(Cl)c4)O5)O[C@H](CO)[C@@H](O)[C@@H]3O)O[C@@H](C)[C@H]2O)cc1 [Compound 7] | 0.5 (≈ 0.29 µM) | 0.01562 (≈ 0.00907 µM) | ≤0.008 | ≤0.008 | ≤0.008 | 0.125 (≈ 0.0726 µM) | 0.5 (≈ 0.29 µM) | 1 (≈ 0.58 µM) | 0.5 (≈ 0.29 µM) | 0.125 (≈ 0.0726 µM) | ≤0.008 | 0.5 (≈ 0.29 µM) | 0.063 (≈ 0.0366 µM) | 2 (≈ 1.16 µM) | ≤0.008 | 0.03125 (≈ 0.0181 µM) | 1 (≈ 0.58 µM) | 1 (≈ 0.58 µM) | ≤0.008 | 0.125 (≈ 0.0726 µM) | MIC90 [5]: 1 µg/mL (≈ 0.58 µM)
CCCCCCN(CCCCCC)C(N)=Nc1ccc(CN[C@@]2(C)C[C@H](O[C@H]3[C@H](Oc4c5cc6cc4Oc4ccc(cc4Cl)[C@@H](O)[C@@H](NC(=O)[C@@H](CC(C)C)NC)C(=O)N[C@@H](CC(N)=O)C(=O)N[C@H]6C(=O)N[C@H]4C(=O)N[C@H](C(=O)N[C@H](C(=O)O)c6cc(O)cc(O)c6-c6cc4ccc6O)[C@H](O)c4ccc(c(Cl)c4)O5)O[C@H](CO)[C@@H](O)[C@@H]3O)O[C@@H](C)[C@H]2O)cc1 [Compound 12] | 1 (≈ 0.567 µM) | ≤0.007812 | 0.063 (≈ 0.0357 µM) | ≤0.008 | ≤0.008 | 0.25 (≈ 0.142 µM) | 1 (≈ 0.567 µM) | 2 (≈ 1.13 µM) | 1 (≈ 0.567 µM) | 0.25 (≈ 0.142 µM) | ≤0.008 | 1 (≈ 0.567 µM) | 0.25 (≈ 0.142 µM) | 2 (≈ 1.13 µM) | ≤0.008 | ≤0.007812 | 2 (≈ 1.13 µM) | 2 (≈ 1.13 µM) | ≤0.008 | 0.25 (≈ 0.142 µM) | MIC ([1]; strain BR-VRSA): 1 µg/mL (≈ 0.567 µM); MIC90 [5]: 2 µg/mL (≈ 1.13 µM)
CN[C@H](CC(C)C)C(=O)N[C@H]1C(=O)N[C@@H](CC(N)=O)C(=O)N[C@H]2C(=O)N[C@H]3C(=O)N[C@H](C(=O)N[C@H](C(=O)O)c4cc(O)cc(O)c4-c4cc3ccc4O)[C@H](O[C@H]3C[C@](C)(N)[C@@H](O)[C@H](C)O3)c3ccc(c(Cl)c3)Oc3cc2cc(c3O[C@@H]2O[C@H](CO)[C@@H](O)[C@H](O)[C@H]2O[C@H]2C[C@](C)(NCc3ccc(-c4ccc(Cl)cc4)cc3)[C@@H](O)[C@H](C)O2)Oc2ccc(cc2Cl)[C@H]1O [Oritavancin] |  |  |  |  |  |  |  |  |  |  |  |  |  |  |  |  |  |  |  |  | MIC ([1]; Staphylococcus aureus, VRSA): 0.25 µg/mL (≈ 0.139 µM); MIC ([1]; strain BR-VRSA): 0.25 µg/mL (≈ 0.139 µM); MIC (S. aureus ATCC29213; Staphylococcus aureus, ATCC 29213 / MSSA): 0.25 µg/mL (≈ 0.139 µM); MIC ([2]; Staphylococcus aureus, VISA): 4 µg/mL (≈ 2.23 µM); MIC ([3]; Staphylococcus aureus, VISA): 1 µg/mL (≈ 0.558 µM); MIC ([4]; Staphylococcus aureus, MRSA): 0.25 µg/mL (≈ 0.139 µM); MIC (E. faecium E980; Enterococcus faecium, E980): 0.0625 µg/mL (≈ 0.0349 µM)
